Experimental data from patent publication US20240376099A1, “COMPOUNDS AND COMPOSITIONS AS INHIBITORS OF ENDOSOMAL TOLL-LIKE RECEPTORS” (Novartis AG, priority 2016, published 2024).

Assays:
Format in all cases: cell-based
[1] = biological target: T1, TLR7 (Homo sapiens, UniProt Q9NYK1); test: huPBMC TLR7 Antagonist IFNα Assay; conditions: human PBMCs stimulated with ssRNA40 10 μg/mL (DOTAP), 14-16 hrs; IFNα2b AlphaLISA read-out
T1 construct: Fresh blood was collected from normal human donors; endogenous in cells; host or cells: human PBMCs from fresh donor blood
T1 sequence (Q9NYK1 27-1049): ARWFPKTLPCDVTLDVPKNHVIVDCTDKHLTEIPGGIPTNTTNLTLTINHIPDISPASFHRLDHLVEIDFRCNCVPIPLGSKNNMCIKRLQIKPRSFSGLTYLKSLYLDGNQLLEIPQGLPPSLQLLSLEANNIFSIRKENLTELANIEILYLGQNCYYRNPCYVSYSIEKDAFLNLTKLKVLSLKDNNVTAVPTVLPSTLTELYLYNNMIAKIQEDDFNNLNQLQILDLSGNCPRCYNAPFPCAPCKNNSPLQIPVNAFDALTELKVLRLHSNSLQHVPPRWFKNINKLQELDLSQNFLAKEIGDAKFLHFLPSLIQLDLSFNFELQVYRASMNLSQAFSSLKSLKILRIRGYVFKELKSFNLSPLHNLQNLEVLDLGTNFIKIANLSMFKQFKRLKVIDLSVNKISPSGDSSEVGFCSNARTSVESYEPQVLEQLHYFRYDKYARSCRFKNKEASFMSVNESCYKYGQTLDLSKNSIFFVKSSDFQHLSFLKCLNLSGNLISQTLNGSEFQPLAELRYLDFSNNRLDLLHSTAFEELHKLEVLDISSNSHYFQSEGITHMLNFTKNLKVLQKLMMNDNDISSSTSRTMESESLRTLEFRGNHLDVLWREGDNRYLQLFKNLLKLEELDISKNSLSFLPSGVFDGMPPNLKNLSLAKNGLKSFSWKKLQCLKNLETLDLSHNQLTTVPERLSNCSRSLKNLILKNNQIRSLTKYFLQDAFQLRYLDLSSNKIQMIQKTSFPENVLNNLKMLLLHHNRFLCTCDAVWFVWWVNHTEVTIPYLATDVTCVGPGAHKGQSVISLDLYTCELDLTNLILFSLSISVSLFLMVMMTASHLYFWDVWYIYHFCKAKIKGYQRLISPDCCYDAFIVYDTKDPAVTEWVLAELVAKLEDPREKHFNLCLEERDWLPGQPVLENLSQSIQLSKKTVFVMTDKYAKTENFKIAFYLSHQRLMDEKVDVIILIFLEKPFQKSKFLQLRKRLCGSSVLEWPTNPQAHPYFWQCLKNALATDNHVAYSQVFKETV
Protocol: (§1) Compounds were generally serially diluted (1/3) in DMSO and plated on sterile 384 well tissue culture plates and stored until ready for use. Each ten-point dilution was typically plated in triplicate in parallel rows.
(§2) Fresh blood was collected from normal human donors underwritten informed consent in heparinized syringes on the morning of the assay. The blood was diluted in RPMI-1640 medium and the white blood cells were separated from red blood cells by centrifugation (800 g 15′ 0 acceleration, 0 brake) on a Ficoll cushion. Peripheral blood mononuclear cells (PBMCs) were separated from platelets by a series of low-speed centrifugations (1000RPM 10′) in PBS+5% HI—FBS and 1 mM EDTA. Purified PBMCs were re-suspended in assay medium (RPMI-1640 w Glutamax (Invitrogen) supplemented with 5% HI—FBS, 10 mM HEPES, 50 uM β-mercaptoethanol, and 100 mG/L penicillin/streptomycin cocktail). Viable PBMCs were counted on a hemacytometer and kept on ice until ready for plating.
(§3) A 4× concentration (4 ug/ml or 40 ug/ml for TLR8 or TLR7 assays, respectively) of the TLR7/8 agonist ssRNA40 (IDT) was complexed with 10% DOTAP (Roche) in assay medium for 30 min prior to addition to the PBMC suspension (5 million cells/ml). After addition, the final concentration of ssRNA40 in the TLR7/8 stimulated PBMC suspension was 1 μg/ml for TLR8 assay, and 10 μg/mL for the TLR7 assay. The final DOTAP concentration was 2.5%. Diluted PBMCs (5 million cells/ml) were treated with 4×TLR9 agonist ODN2216 (Invivogen). Final concentration of ODN2216 in TLR9 stimulated PBMC suspension was 0.3 μM.
(§4) Agonist stimulated PBMCs were plated on the compound treated 384 well plates at 150,000 cells/well. Un-stimulated PBMCs were plated as controls on each plate. Plating volume was 40 μL per well. DMSO concentration in each well was 0.25%.
(§5) A separate plate, without compounds, with titrations of ssRNA40 and ODN2216 was included in every assay to measure agonist response of each donor's PBMC prep. Assay plates were placed in a tissue culture incubator (37° C., 5% CO2) for 14-16 hrs. After this incubation, the plates were centrifuged and stored at −20° C. until they were assayed.
(§6) IL-6 TR-FRET Assay for TLR8 activity: • 1) Cisbio Human IL-6 kit, 20,000 tests (62TNFPEC), and GNF High-Base TC 384 well plates (cat #789163G) were used; • 2) the Anti-TIL-6 Cryptate conjugate and the Anti-IL-6 XL665 conjugate were diluted 1:20 in Reconstitution Buffer; • 3) a 1:1 mixture of 3 μl/well Anti-IL-6 Cryptate conjugate and 3 μl/well Anti-IL-6 XL665 conjugate was prepared; • 4) 6 μl/well HTRF dilution mastermix was added to 6 μl of transferred supernatant samples in proxiplates; • 5) The plates were incubated for 3 hrs at rt in the dark; and • 6) the levels of IL-6 production was measured using an Envision plate reader (665 nm (emmission)/590 nm (excitation)) with HTRF settings and ratiometric read-out: (XL665 emission/Eu Cryptate emission)×10,000. IFNα2b AlphaLISA Assay for TLR7 or TLR9 activity After thawing the assay plates, 6 μL of supernatant samples were transferred to a low-volume AlphaPlate 384SW (Perkin-Elmer). The concentration of IFNα in supernatants was measured using the IFNα2b AlphaLISA Assay (Perkin-Elmer: AL297F). 3 μL of IFNα acceptor beads/biotinylated antibody solution was added first, using laboratory automation. After an hour incubation, […] of streptavidin […] bead solution was added. The plates containing this mixture were incubated in the dark for an hour and read on an appropriate plate reader at reading parameters set by the manufacturer. (Envision, EnSpire: Perkin-Elmer).

[2] = biological target: T2, TLR9 (Homo sapiens, UniProt Q9NR96); test: huPBMC TLR9 Antagonist IFNα Assay; conditions: human PBMCs stimulated with ODN2216 0.3 μM, 14-16 hrs; IFNα2b AlphaLISA read-out
T2 construct: Fresh blood was collected from normal human donors; endogenous in cells; host or cells: human PBMCs from fresh donor blood
T2 sequence (Q9NR96 26-1032): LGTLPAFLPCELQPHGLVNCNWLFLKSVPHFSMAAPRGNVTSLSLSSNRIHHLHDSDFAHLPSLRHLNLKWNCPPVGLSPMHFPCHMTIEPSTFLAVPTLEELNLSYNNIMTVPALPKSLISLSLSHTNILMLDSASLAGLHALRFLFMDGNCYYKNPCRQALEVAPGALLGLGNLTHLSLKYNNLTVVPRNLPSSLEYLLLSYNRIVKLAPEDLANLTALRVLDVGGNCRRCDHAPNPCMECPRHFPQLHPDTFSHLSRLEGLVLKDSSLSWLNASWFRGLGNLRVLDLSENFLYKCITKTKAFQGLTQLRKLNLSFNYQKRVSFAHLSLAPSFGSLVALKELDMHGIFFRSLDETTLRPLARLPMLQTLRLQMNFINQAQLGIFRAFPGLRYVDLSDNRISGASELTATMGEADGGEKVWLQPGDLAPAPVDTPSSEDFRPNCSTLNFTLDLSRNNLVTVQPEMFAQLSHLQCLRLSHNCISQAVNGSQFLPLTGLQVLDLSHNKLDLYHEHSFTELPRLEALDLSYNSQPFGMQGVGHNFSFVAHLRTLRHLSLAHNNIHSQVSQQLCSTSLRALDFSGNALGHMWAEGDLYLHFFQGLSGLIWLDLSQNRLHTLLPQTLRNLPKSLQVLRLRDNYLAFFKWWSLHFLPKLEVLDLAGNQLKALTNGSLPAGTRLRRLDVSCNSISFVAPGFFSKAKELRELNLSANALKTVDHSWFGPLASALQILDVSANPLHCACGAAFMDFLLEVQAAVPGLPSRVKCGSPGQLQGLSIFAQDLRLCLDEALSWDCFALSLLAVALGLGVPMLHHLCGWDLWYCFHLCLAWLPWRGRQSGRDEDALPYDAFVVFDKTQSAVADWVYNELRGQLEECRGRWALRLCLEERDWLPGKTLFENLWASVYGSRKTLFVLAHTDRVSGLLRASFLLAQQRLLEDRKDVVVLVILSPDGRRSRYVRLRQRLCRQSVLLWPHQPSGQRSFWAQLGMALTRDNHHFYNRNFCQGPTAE
Protocol: as §1, §2, §3, §4, §5, §6

[3] = biological target: T3, TLR8 (Homo sapiens, UniProt Q9NR97); test: huPBMC TLR8 Antagonist IL-6 TR-FRET Assay; set-up: Fresh blood was collected from normal human donors; endogenous in cells; host or cells: human PBMCs from fresh donor blood; conditions: human PBMCs stimulated with ssRNA40 1 μg/ml (DOTAP), 14-16 hrs; IL-6 TR-FRET read-out
T3 sequence (Q9NR97 27-1041): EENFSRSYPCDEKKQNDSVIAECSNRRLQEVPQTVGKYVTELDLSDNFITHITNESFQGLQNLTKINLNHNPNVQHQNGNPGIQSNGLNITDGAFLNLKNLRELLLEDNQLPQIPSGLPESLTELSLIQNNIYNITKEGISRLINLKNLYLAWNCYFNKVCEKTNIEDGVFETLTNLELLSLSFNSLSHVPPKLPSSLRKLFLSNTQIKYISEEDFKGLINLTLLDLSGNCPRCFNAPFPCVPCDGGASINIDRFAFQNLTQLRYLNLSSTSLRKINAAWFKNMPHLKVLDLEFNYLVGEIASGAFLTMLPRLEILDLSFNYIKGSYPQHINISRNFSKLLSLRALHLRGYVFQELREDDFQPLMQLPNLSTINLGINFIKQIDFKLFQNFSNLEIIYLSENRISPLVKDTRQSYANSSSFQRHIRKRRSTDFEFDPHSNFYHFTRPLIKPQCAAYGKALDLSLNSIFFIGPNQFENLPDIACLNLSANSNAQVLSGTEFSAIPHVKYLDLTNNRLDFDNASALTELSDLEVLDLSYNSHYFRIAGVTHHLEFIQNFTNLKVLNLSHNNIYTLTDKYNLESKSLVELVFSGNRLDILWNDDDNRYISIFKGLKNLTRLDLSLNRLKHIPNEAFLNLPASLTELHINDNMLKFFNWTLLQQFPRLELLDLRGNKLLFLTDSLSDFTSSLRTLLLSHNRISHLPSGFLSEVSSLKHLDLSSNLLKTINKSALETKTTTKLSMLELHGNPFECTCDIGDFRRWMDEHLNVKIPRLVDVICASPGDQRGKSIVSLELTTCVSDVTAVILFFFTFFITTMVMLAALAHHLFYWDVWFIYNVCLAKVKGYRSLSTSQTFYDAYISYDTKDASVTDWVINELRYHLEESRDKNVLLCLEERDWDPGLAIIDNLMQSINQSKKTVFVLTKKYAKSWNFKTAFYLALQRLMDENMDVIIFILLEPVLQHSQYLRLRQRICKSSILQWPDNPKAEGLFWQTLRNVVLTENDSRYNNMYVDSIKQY
Outline: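 Human PBMCs from fresh donor blood (150,000 cells/well) stimulated 14–16 h at 37 °C with DOTAP-complexed ssRNA40 (final 1 μg/ml for TLR8, 10 μg/mL for TLR7) or ODN2216 (final 0.3 μM, TLR9), 0.25% DMSO, ten-point 1/3 compound dilutions. Supernatant IL-6 read by HTRF (TLR8); IFNα by IFNα2b AlphaLISA (TLR7/TLR9).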

Row | SMILES | IC50 [1] [nM] | IC50 [2] [nM] | IC50 [3] [nM]
1 | CC(=O)NC12CCC(Cn3nc(C)c4c3CCN(c3cc(C)nc5c3cnn5C)C4)(CC1)CC2 [compound 47, N-(4-((5-(1,6-dimethyl-1H-pyrazolo[3,4-b]pyridin-4-yl)-3-methyl-4,5,6,7-tetrahydro-1H-pyrazolo[4,3-c]pyridin-1-yl)methyl)bicyclo[2.2.2]octan-1-yl)acetamide] | 4 | > 10000 | –
2 | Cc1cc(N2CCc3c(c(C)nn3CC34CCC(NCC(F)F)(CC3)CC4)C2)c2cnn(C)c2n1 [Compound No. 61, N-(2,2-difluoroethyl)-4-((5-(1,6-dimethyl-1H-pyrazolo[3,4-b]pyridin-4-yl)-3-methyl-4,5,6,7-tetrahydro-1H-pyrazolo[4,3-c]pyridin-1-yl)methyl)bicyclo[2.2.2]octan-1-amine] | 12 | – | 129
3 | CCn1ncc2c(N3CCc4c(c(C)nn4CC45CCC(NC(=O)OC(C)(C)C)(CC4)CC5)C3)cc(C)nc21 [compound 145, tert-butyl (4-((5-(1-ethyl-6-methyl-1H-pyrazolo[3,4-b]pyridin-4-yl)-3-methyl-4,5,6,7-tetrahydro-1H-pyrazolo[4,3-c]pyridin-1-yl)methyl)bicyclo[2.2.2]octan-1-yl)carbamate] | 61 | – | > 10000
